Where two headings read alike, the source gives them in different places.
Columns and labels:
CYP2D6 = CYP2D6 (Homo sapiens, UniProt P10635); test: CYP450 inhibition in pooled human liver microsomes, CYP2D6; format: in vitro ADME; settings: highest concentration tested (3 μM)
Excerpt: (§1) In addition, there was little or no evidence of metabolism-dependent inhibition of any of the enzymes tested.

[1] = system: NADPH levels in HCT-116 cells; test: WST-1 absorbance as marker of NADPH in HCT-116; format: cell-based; settings: HCT-116, 24 h
Excerpt: WST-1 absorbance is commonly used to assess cell viability by measuring glycolytic production of NAD(P)H by viable cells. Therefore, in situations where NADPH production increases in the absence of any effect on cell viability, WST-1 absorbance also increases (Berridge et al. Biochemica 4:14-19, 1996, which is incorporated herein by reference).

[2] = system: phosphorylation of IκBα in HeLa cells; test: TNF-α-induced phosphorylation of IκBα in HeLa (Western); format: cell-based, human; settings: 6 h pretreatment, TNF-α 20 ng/mL 5 min
Protocol: Total and phosphorylated levels of IκBα were evaluated by Western blot. Primary IκBα antibodies were from Santa-Cruz (sc-371), pIκBα antibody was from Cell Signaling (9246), actin antibody was from Millipore (MAB 1501). Peroxidase-conjugated affini-pure Goat anti-Rabbit (IgG) and peroxidase-conjugated affini-pure Goat anti-Mouse IgG secondary antibodies were purchased from Jackson ImmunoResearch. Protein blots were developed using ECL, and exposed to X-ray film.

cynomolgus monkeys = settings: for ALP / ALT / AST / Albumin / BUN / Chol / Cr / Glucose / TG / Tot Bil / Tot Prot: monkey, Day 14
CYP2B6 = CYP2B6 (Homo sapiens, UniProt P20813); test: CYP450 inhibition in pooled human liver microsomes, CYP2B6; format: in vitro ADME; settings: highest concentration tested (3 μM)
Excerpt: as §1

[3] = system: LPS-induced pulmonary inflammation; test: LPS-induced pulmonary inflammation in mice
ovalbumin-induced asthma = test: Ovalbumin-induced asthma in mice; format: in vivo, mouse
Excerpt: Mice were sensitized with an IP injection of ovalbumin and aluminum hydroxide on Day 0 and Day 14 and challenged intranasally with ovalbumin in saline on Days 14, 25, 26, and 27. […] An increase in the number of T cells and B cells was also observed in the vehicle-treated mice.

[4] = system: total glutathione in AML-12 hepatocyte cell line; test: Total glutathione (GSH-Glo) in AML-12; format: cell-based, mouse; settings: AML-12, 24 h, 15.6 nM
Excerpt: Glutathione and NADPH are critical factors required for the maintenance of cellular redox capacity. […] Data shown are representative of two independent experiments.

[5] = Plasma protein binding (ultracentrifugation), minipig
[6] = system: Nrf2 target genes (NQO1, HMOX1, GCLM, TXNRD1) in HFL1 lung fibroblasts; test: Nrf2 target gene mRNA (qPCR) in HFL1; format: cell-based, human; settings: HFL1, 18 h
Protocol: HFL1 cells were cultured in F-12K media supplemented with 10% fetal bovine serum and 1% penicillin-streptomycin. BEAS-2B cells were cultured in DMEM/F-12 media supplemented with 10% fetal bovine serum and 1% penicillin-streptomycin. […] Each well received the same amount of vehicle. Following treatment, media was removed and cells were harvested using RLT buffer (Qiagen). Lysates were homogenized using QIAShredder columns (Qiagen, Catalog #79654) and RNA was isolated using RNeasy Mini kits (Qiagen, Catalog #74104). For reverse transcription, RNA (1 μg) was combined with Oligo(dT)12-18 primer and H2O in a final volume of 23.25 μL. The mixture was heated to 70° C. for 10 min and then placed on ice. A master mix containing 8 μL 5×1st strand buffer, 2 μL 1 mg/ml BSA, 2 μL 20 mM DTT, 4 μL 5 mM dNTP mix, 0.25 μL RNaseOUTTM and 0.5 μL […]® II reverse transcriptase was added to the RNA mixture and incubated at 42° C. for 1 h. The reaction was inactivated by heating to 70° C. for 10 min. The reaction mixture was diluted 1:3 with H2O prior to use in qPCR. […] The relative abundance of each Nrf2 target gene was determined using the comparative CT method (ΔΔCT). […]

[7] = Topical pharmacokinetics in rats; format: in vivo, rat; settings: 0.01% to 3% suspension in sesame oil
Excerpt: The topical administration was formulated as a suspension in sesame oil.

[8] = system: bleomycin-induced pulmonary fibrosis; test: Bleomycin-induced pulmonary fibrosis in mice; format: in vivo, mouse; settings: 10, 30, or 100 mg/kg oral gavage daily for 39 days

CYP2D6, sequence (P10635 whole entry): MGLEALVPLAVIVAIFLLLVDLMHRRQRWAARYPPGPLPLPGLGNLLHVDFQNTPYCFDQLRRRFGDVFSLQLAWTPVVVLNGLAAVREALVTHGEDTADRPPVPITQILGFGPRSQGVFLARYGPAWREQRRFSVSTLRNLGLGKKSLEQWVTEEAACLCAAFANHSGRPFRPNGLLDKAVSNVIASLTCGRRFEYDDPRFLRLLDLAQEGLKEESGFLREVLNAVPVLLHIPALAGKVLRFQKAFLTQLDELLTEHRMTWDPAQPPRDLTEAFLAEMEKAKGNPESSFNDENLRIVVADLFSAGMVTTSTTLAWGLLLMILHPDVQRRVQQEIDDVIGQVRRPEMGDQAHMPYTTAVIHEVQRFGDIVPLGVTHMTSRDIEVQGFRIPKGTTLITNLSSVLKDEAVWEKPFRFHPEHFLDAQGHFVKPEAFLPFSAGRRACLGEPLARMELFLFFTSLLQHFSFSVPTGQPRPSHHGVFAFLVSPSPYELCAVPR
CYP2B6, sequence (P20813 whole entry): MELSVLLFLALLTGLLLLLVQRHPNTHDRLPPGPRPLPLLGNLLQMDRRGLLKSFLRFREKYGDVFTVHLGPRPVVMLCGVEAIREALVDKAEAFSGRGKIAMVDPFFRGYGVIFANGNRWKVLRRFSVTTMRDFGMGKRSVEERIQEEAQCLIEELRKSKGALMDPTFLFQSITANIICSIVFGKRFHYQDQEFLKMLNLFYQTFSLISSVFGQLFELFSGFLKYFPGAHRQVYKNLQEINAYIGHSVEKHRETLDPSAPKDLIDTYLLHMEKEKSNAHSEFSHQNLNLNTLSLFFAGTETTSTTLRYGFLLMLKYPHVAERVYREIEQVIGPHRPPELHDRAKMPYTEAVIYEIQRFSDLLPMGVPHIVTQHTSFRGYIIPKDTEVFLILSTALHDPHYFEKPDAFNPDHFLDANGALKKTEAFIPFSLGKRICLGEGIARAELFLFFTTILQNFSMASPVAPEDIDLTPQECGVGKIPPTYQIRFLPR

Which results are given for `CC1(C)CC[C@]2(NC(=O)C(C)(F)F)CC[C@]3(C)[C@H](C(=O)C=C4[C@@]5(C)C=C(C#N)C(=O)C(C)(C)[C@@H]5CC[C@]43C)[C@@H]2C1` [RTA 408, N-((4aS,6aR,6bS,8aR,12aS,14aR,14bS)-11-cyano-2,2,6a,6b,9,9,12a-heptamethyl-10,14-dioxo-1,2,3,4,4a,5,6,6a,6b,7,8,8a,9,10,12a,14,14a,14b-octadecahydropicen-4a-yl)-2,2-difluoropropanamide]?
inhibition at 3 µM (CYP2D6): < 50%; WST-1 absorbance (marker of NADPH) [1]: increased WST-1 absorbance in a dose-dependent manner; TNF-α-induced phosphorylation of IκBα [2]: inhibited TNF-α-induced phosphorylation of IκBα in a dose-dependent manner; NQO1, Gst, Gsr enzyme activity in monkey liver and lung (and rodent liver) (cynomolgus monkeys; 10, 30, and 100 mg/kg, 14 days): dose-dependent increases in NQO1, Gst, and Gsr enzyme activity; Clinical chemistry (cynomolgus monkeys; 14 days): Clinical chemistry data suggested no obvious toxicity; ALP (cynomolgus monkeys; 10 mg/kg): 382 U/L; ALT (cynomolgus monkeys; 10 mg/kg): 46 U/L; AST (cynomolgus monkeys; 10 mg/kg): 38 U/L; Albumin (cynomolgus monkeys; 10 mg/kg): 4 g/dL; BUN (cynomolgus monkeys; 10 mg/kg): 27 mg/dL; Chol (cynomolgus monkeys; 10 mg/kg): 144 mg/dL; Cr (cynomolgus monkeys; 10 mg/kg): 0.68 mg/dL; Glucose (cynomolgus monkeys; 10 mg/kg): 39 mg/dL; TG (cynomolgus monkeys; 10 mg/kg): 82 mg/dL; Tot Bil (cynomolgus monkeys; 10 mg/kg): 0.23 mg/dL; Tot Prot (cynomolgus monkeys; 10 mg/kg): 7.2 g/dL; ALP (cynomolgus monkeys; 30 mg/kg): 416 U/L; ALT (cynomolgus monkeys; 30 mg/kg): 47 U/L; AST (cynomolgus monkeys; 30 mg/kg): 43 U/L; Albumin (cynomolgus monkeys; 30 mg/kg): 4 g/dL; BUN (cynomolgus monkeys; 30 mg/kg): 20 mg/dL; Chol (cynomolgus monkeys; 30 mg/kg): 122 mg/dL; Cr (cynomolgus monkeys; 30 mg/kg): 0.58 mg/dL; Glucose (cynomolgus monkeys; 30 mg/kg): 53 mg/dL; TG (cynomolgus monkeys; 30 mg/kg): 64 mg/dL; Tot Bil (cynomolgus monkeys; 30 mg/kg): 0.2 mg/dL; Tot Prot (cynomolgus monkeys; 30 mg/kg): 7.2 g/dL; ALP (cynomolgus monkeys; 100 mg/kg): 390 U/L; ALT (cynomolgus monkeys; 100 mg/kg): 43 U/L; AST (cynomolgus monkeys; 100 mg/kg): 37 U/L; Albumin (cynomolgus monkeys; 100 mg/kg): 3.2 g/dL; BUN (cynomolgus monkeys; 100 mg/kg): 24 mg/dL; Chol (cynomolgus monkeys; 100 mg/kg): 93 mg/dL; Cr (cynomolgus monkeys; 100 mg/kg): 0.55 mg/dL; Glucose (cynomolgus monkeys; 100 mg/kg): 32 mg/dL; TG (cynomolgus monkeys; 100 mg/kg): 61 mg/dL; Tot Bil (cynomolgus monkeys; 100 mg/kg): 0.18 mg/dL; Tot Prot (cynomolgus monkeys; 100 mg/kg): 6 g/dL; inhibition at 3 µM (CYP2B6): < 50%; BALF cytokines, second study ([3]; 10 mg/kg daily for six days): Significant reductions in TNF-α; BALF cytokines, second study ([3]; 30 mg/kg daily for six days): significant reductions in IL-12p40, TNF-α, and RANTES; Body weight, second study ([3]; 100 mg/kg daily, starting on Day 3): significant decreases in body weight; Lung NQO1 enzyme activity (with increases in total GSH), second study ([3]; 10 and 30 mg/kg): significant induction of NQO1 enzyme activity; BALF pro-inflammatory markers, first study ([3]; 30, 100, or 150 mg/kg orally once daily for three days): significant reduction in IL-12p40 at all doses and in TNF-α at the 100 and 150 mg/kg doses; Peak reductions in TNF-α, IL-6, and IL-12 in BALF ([3]; QD×3, LPS 1 h after last dose, BALB/c mice): 50%-80%; B cells within the airways (ovalbumin-induced asthma; 30 mg/kg): significantly reduced the number and percentage of B cells within the airways; Macrophages detected in the airways (ovalbumin-induced asthma; 3 and 30 mg/kg): significantly reduced the number of macrophages; Increase in total glutathione [4]: > 2 fold; fraction unbound [5]: < 0.01; Lowest concentration at which induction of Nrf2 target genes was evident [6]: 15.6 nM; Plasma concentrations after topical administration [7]: lower plasma concentrations relative to similar oral dosing; Inflammation and interstitial fibrosis (lung histology) [8]: no statistically significant effects were observed
